Experimental data as given in the supplement of paper PMC10307832.

Tests used:
Experiment in all cases: relative viability (nuclei count vs DMSO), 5 days (fraction); higher = more cells survive
[1] = compound: N#CC1(c2ccc(NC(=O)c3cccnc3NCc3ccncc3)cc2)CCCC1 [Apatinib]
In short: (§1)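 After an overnight hold at 37 °C, lung cancer cell lines in 1536-well plates were pinned with five library-drug doses (not always all listed), each √10 from the next, on vehicle-anchored plates. The cells stayed 5 days without fresh medium, then a one-step fix, permeabilisation and Hoechst stain preceded 4× imaging and MetaXpress nuclear counts. A plate passed only with control CV under 25% and at least one doubling. Viability is the median, over plates, of treated-well nuclei relative to vehicle-well nuclei.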

[2] = compound: CN(C)C(=N)NC(=N)N [Metformin]
In short: as §1

[3] = compound: CN(C)C(=N)NC(=N)N [Metformin] + COc1cc2c(Oc3ccc(NC(=O)C4(C(=O)Nc5ccc(F)cc5)CC4)cc3F)ccnc2cc1OCCCN1CCOCC1 [Foretinib] (partner 0.25 µM)
In short: (§2)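 One day after seeding in 1536-well plates, lung cancer cell lines were dosed by pin tool. Dosing was either single-drug or a fixed anchor-drug dose plus five library-drug doses (not always all listed) in √10 steps. After 5 days, nuclei were stained in one fix-and-stain step and counted on 4× images, and relative viability is the nuclei count of treated wells over that of vehicle wells, given as the median of duplicate plates.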

[4] = compound: CN(C)C(=N)NC(=N)N [Metformin] + CC1(C)CCC(c2ccc(Cl)cc2)=C(CN2CCN(c3ccc(C(=O)NS(=O)(=O)c4ccc(N[C@H](CCN5CCOCC5)CSc5ccccc5)c(S(=O)(=O)C(F)(F)F)c4)cc3)CC2)C1 [Navitoclax] (partner 0.5 µM)
In short: as §2

Cell Line	relative viability ([1]; 0.08 µM)	relative viability ([1]; 0.253 µM)	relative viability ([1]; 0.8 µM)	relative viability ([1]; 2.53 µM)	relative viability ([1]; 8 µM)	relative viability ([2]; 10 µM)	relative viability ([2]; 31.62 µM)	relative viability ([2]; 100 µM)	relative viability ([2]; 316.23 µM)	relative viability ([2]; 1000 µM)	relative viability ([3]; first compound 10 µM)	relative viability ([3]; first compound 31.62 µM)	relative viability ([3]; first compound 100 µM)	relative viability ([3]; first compound 316.23 µM)	relative viability ([3]; first compound 1000 µM)	relative viability ([4]; first compound 10 µM)	relative viability ([4]; first compound 31.62 µM)	relative viability ([4]; first compound 100 µM)	relative viability ([4]; first compound 316.23 µM)	relative viability ([4]; first compound 1000 µM)
NCI-H1395	0.914	1.11	0.964	0.685	0.844	1.06	1.3	0.96	0.956	0.521	0.965	1	1.04	0.883	0.997	1.11	1.32	1.06	0.958	1.1
SK-MES-1	1.02	1.06	0.978	0.933	0.884	0.9	0.875	0.952	0.826	0.884	0.915	0.888	0.874	0.912	1.18	0.879	1.08	1.07	0.973	1.14
EPLC-272H	1.01	1.02	0.914	0.774	0.691	0.9	1.16	0.923	0.935	1.09	0.864	0.909	0.978	0.784	1.09	1.23	1.1	1.04	1.1	1.4
EBC-1	1	1.06	0.914	0.858	0.738	1.18	1.19	1.07	0.918	1.04	0.0914	0.09		0.103	0.0951	0.364	0.405	0.356	0.362	0.442
NCI-H2087	1.05	1.03	1.22	0.788	0.814	0.79	0.965	0.944	0.813	1.01		0.966	1.12	0.891	1.06	0.951	0.86	0.96	0.782	0.834
PC-3 [JPC-3]	1.06	0.983	0.915	0.955	0.985	0.898	0.986	1.01	0.987	1.02	0.808	0.945	0.996	0.93	0.946	0.702	0.735	0.821	0.761	0.732
NCI-H441	1.08	1.05	0.837	0.864	0.743		0.761	0.985	0.667	0.944		0.879	0.799	0.788	0.77	0.408		0.55		0.486
LCLC-97TM1	0.792	0.882	1.02	0.785	0.662	0.725	0.978	0.988	0.843	1.25	0.912	0.808	0.875	0.895	1.02	0.44	0.339	0.547	0.276	0.486
